Results reported in ChEMBL document CHEMBL4840355, “Antitumor and toxicity study of mitochondria-targeted triptolide derivatives using triphenylphosphine (TPP+) as a carrier” (Bioorg Med Chem, 2021).
Active and inactive are the calls of the source. The calls are words filed in the database; no cut-off is given here.

Legend:
HepG2 [1] = experiment: Cytotoxicity against human HepG2 cells assessed as inhibition of cell proliferation measured after 48 hrs by MTT assay; assay type: functional, cell-based; conditions: HepG2, 48 h
NCI-H1299 [2] = experiment: Cytotoxicity against human NCI-H1299 cells assessed as inhibition of cell proliferation measured after 48 hrs by MTT assay; assay type: functional, cell-based; conditions: NCI-H1299, 48 h
PC-3 [3] = experiment: Cytotoxicity against human PC-3 cells assessed as inhibition of cell proliferation measured after 48 hrs by MTT assay; assay type: functional, cell-based; conditions: PC-3, 48 h
HeLa [4] = experiment: Cytotoxicity against human HeLa cells assessed as inhibition of cell proliferation measured after 48 hrs by MTT assay; assay type: functional, cell-based
PANC-1 [5] = experiment: Cytotoxicity against human PANC-1 cells assessed as inhibition of cell proliferation measured after 48 hrs by MTT assay; assay type: functional, cell-based; conditions: PANC-1, 48 h
[6] = Cytotoxicity against human HBE cells assessed as inhibition of cell proliferation measured after 48 hrs by MTT assay; assay type: cell-based
[7] = Cytotoxicity against human A549/DDP cells assessed as inhibition of cell proliferation measured after 48 hrs by MTT assay; assay type: functional, cell-based
L02 = experiment: Cytotoxicity against human HL7702 cells assessed as inhibition of cell proliferation measured after 48 hrs by MTT assay; assay type: cell-based; conditions: L02, 48 h
MCF7 [8] = experiment: Cytotoxicity against human MCF7 cells assessed as inhibition of cell proliferation measured after 48 hrs by MTT assay; assay type: functional, cell-based; conditions: MCF7, 48 h
NCI-H1975 [9] = experiment: Cytotoxicity against human NCI-H1975 cells assessed as inhibition of cell proliferation measured after 48 hrs by MTT assay; assay type: functional, cell-based; conditions: NCI-H1975, 48 h
HepG2 [10] = experiment: Antitumor activity against human HepG2 cells xenografted in zebra fish AB assessed as tumor growth inhibition at 1 uM measured after 48 hrs by fluorescence microscopic analysis; assay type: functional, cell-based
[11] = Potency index, ratio of TP IC50 to test compound IC50 for cytotoxicity against human A549/DDP cells; assay type: functional
HepG2 [12] = experiment: Potency index, ratio of TP IC50 to test compound IC50 for cytotoxicity against human HepG2 cells; assay type: functional
PANC-1 [13] = experiment: Potency index, ratio of TP IC50 to test compound IC50 for cytotoxicity against human PANC-1 cells; assay type: functional
HeLa [14] = experiment: Potency index, ratio of TP IC50 to test compound IC50 for cytotoxicity against human HeLa cells; assay type: functional
NCI-H1299 [15] = experiment: Potency index, ratio of TP IC50 to test compound IC50 for cytotoxicity against human NCI-H1299 cells; assay type: functional
PC-3 [16] = experiment: Potency index, ratio of TP IC50 to test compound IC50 for cytotoxicity against human PC-3 cells; assay type: functional
NCI-H1975 [17] = experiment: Potency index, ratio of TP IC50 to test compound IC50 for cytotoxicity against human NCI-H1975 cells; assay type: functional
MCF7 [18] = experiment: Potency index, ratio of TP IC50 to test compound IC50 for cytotoxicity against human MCF7 cells; assay type: functional
[19] = Toxicity in 12-month old zebrafish assessed as mortality at 1.6 uM; parameters: species or system Danio rerio; conditions: in vivo
[20] = Hepatotoxicity in transgenic zebrafish Tg(1-fabp:EGFP) assessed as liver damage by measuring decrease in fluorescence intensity and area at 0.5 uM measured after 96 hrs; assay type: toxicity, tissue-based, Danio rerio; conditions: in vivo
[21] = Toxicity in zebrafish AB assessed as pericardial edema at 1 uM; parameters: species or system Danio rerio; conditions: in vivo
[22] = Toxicity in zebrafish AB assessed as increase in embryo malformation rate at 0.5 to 2 uM measured at 72 hrs postfertilization; parameters: species or system Danio rerio; conditions: in vivo, dose 0.5-2 µM
HepG2 [23] = experiment: Antitumor activity against human HepG2 cells xenografted in zebra fish AB assessed as tumor growth inhibition at 0.5 to 1 uM measured after 48 hrs by fluorescence microscopic analysis; assay type: functional, cell-based; conditions: dose 0.5-1 µM
[24] = Toxicity in zebrafish AB assessed as decrease in hatching rate at 0.25 to 2 uM measured at 72 hrs postfertilization; parameters: species or system Danio rerio; conditions: in vivo, dose 0.25-2 µM
[25] = Toxicity in zebrafish AB assessed as mortality at 0.05 to 2 uM measured at 72 hrs postfertilization; parameters: species or system Danio rerio; conditions: in vivo, dose 0.05-2 µM
[26] = Toxicity in zebrafish AB assessed as decrease in body length at 0.25 to 2 uM measured at 72 hrs postfertilization; parameters: species or system Danio rerio; conditions: in vivo, dose 0.25-2 µM

Compound	IC50 (HepG2 [1]) [nM]	IC50 (NCI-H1299 [2]) [nM]	IC50 (PC-3 [3]) [nM]	IC50 (HeLa [4]) [nM]	IC50 (PANC-1 [5]) [nM]	IC50 [6] [nM]	IC50 [7] [nM]	IC50 (L02) [nM]	IC50 (MCF7 [8]) [nM]	IC50 (NCI-H1975 [9]) [nM]	also measured
CCCCC(=O)O[C@@H]1[C@@]2(C(C)C)O[C@H]2[C@@H]2O[C@]23[C@]12O[C@H]2C[C@H]1C2=C(CC[C@@]13C)C(=O)OC2	489	505	985	809	140	327	> 10000	317	1690	525	
CCCCCCC(=O)O[C@@H]1[C@@]2(C(C)C)O[C@H]2[C@@H]2O[C@]23[C@]12O[C@H]2C[C@H]1C2=C(CC[C@@]13C)C(=O)OC2	52	134	189	242	169	119	> 10000	42	213	82	
COc1cccc2c1C(=O)c1c(O)c3c(c(O)c1C2=O)C[C@@](O)(C(=O)CO)C[C@@H]3O[C@H]1C[C@H](N)[C@H](O)[C@H](C)O1 [DOXORUBICIN]	1970	1300	539	2090	3100	1260	10800	351		2680	Activity (HepG2 [10]): Active
CC(C)[C@]12O[C@H]1[C@@H]1O[C@]13[C@]1(O[C@H]1C[C@H]1C4=C(CC[C@@]13C)C(=O)OC4)[C@@H]2OC(=O)CCCCCCC[P+](c1ccccc1)(c1ccccc1)c1ccccc1	60	202	163	331	165	123	> 10000	127	312	190	
CC(C)[C@]12O[C@H]1[C@@H]1O[C@]13[C@]1(O[C@H]1C[C@H]1C4=C(CC[C@@]13C)C(=O)OC4)[C@@H]2OC(=O)CCCCCBr	147	116	79	386	387	170	> 10000	85	363	208	
CC(C)[C@]12O[C@H]1[C@@H]1O[C@]13[C@]1(O[C@H]1C[C@H]1C4=C(CC[C@@]13C)C(=O)OC4)[C@@H]2OC(=O)CCCC[P+](c1ccccc1)(c1ccccc1)c1ccccc1.[Br-]	24200	2240	26400	22900	13400	6270	> 10000	17400	18700	1380	Ratio IC50 [11]: 100; Ratio IC50 (HepG2 [12]): 100; Ratio IC50 (PANC-1 [13]): 100; Ratio IC50 (HeLa [14]): 100; Ratio IC50 (NCI-H1299 [15]): 100; Ratio IC50 (PC-3 [16]): 100; Ratio IC50 (NCI-H1975 [17]): 100; Ratio IC50 (MCF7 [18]): 100
CCCCCCCC(=O)O[C@@H]1[C@@]2(C(C)C)O[C@H]2[C@@H]2O[C@]23[C@]12O[C@H]2C[C@H]1C2=C(CC[C@@]13C)C(=O)OC2	111	194	170	449	137	141	> 10000	63	554	152	
CCCCCC(=O)O[C@@H]1[C@@]2(C(C)C)O[C@H]2[C@@H]2O[C@]23[C@]12O[C@H]2C[C@H]1C2=C(CC[C@@]13C)C(=O)OC2	74	216	157	340	86	101	> 10000	153	644	81	
CC(C)[C@]12O[C@H]1[C@@H]1O[C@]13[C@]1(O[C@H]1C[C@H]1C4=C(CC[C@@]13C)C(=O)OC4)[C@@H]2OC(=O)CCCCCC[P+](c1ccccc1)(c1ccccc1)c1ccccc1	135	242	145	269	239	136	> 10000	319	316	145	
CC(C)[C@]12O[C@H]1[C@@H]1O[C@]13[C@]1(O[C@H]1C[C@H]1C4=C(CC[C@@]13C)C(=O)OC4)[C@@H]2OC(=O)CCCCCCCBr	138	89	163	265	137	132	> 10000	88	300	36	
CC(C)[C@]12O[C@H]1[C@@H]1O[C@]13[C@]1(O[C@H]1C[C@H]1C4=C(CC[C@@]13C)C(=O)OC4)[C@@H]2OC(=O)CCCCBr	231	232	189	719	1220	266	> 10000	84	384	163	
CCCCCCCCCCC(=O)O[C@@H]1[C@@]2(C(C)C)O[C@H]2[C@@H]2O[C@]23[C@]12O[C@H]2C[C@H]1C2=C(CC[C@@]13C)C(=O)OC2	292	333	1260	473	320	153	> 10000	188	471	95	
CC(C)[C@]12O[C@H]1[C@@H]1O[C@]13[C@]1(O[C@H]1C[C@H]1C4=C(CC[C@@]13C)C(=O)OC4)[C@@H]2OC(=O)CCCCCCCCCCBr	625	557	814	1080	366	479	> 10000	227	426	381	
CC(C)[C@]12O[C@H]1[C@@H]1O[C@]13[C@]1(O[C@H]1C[C@H]1C4=C(CC[C@@]13C)C(=O)OC4)[C@@H]2OC(=O)CCCCCCBr	65	89	42	252	211	116	> 10000	75	92	98	
CC(C)[C@]12O[C@H]1[C@@H]1O[C@]13[C@]1(O[C@H]1C[C@H]1C4=C(CC[C@@]13C)C(=O)OC4)[C@@H]2OC(=O)CCCCCCCCCC[P+](c1ccccc1)(c1ccccc1)c1ccccc1	355	381	149	617	186	212	1020	415	192	265	
CC(C)[C@]12O[C@H]1[C@@H]1O[C@]13[C@]1(O[C@H]1C[C@H]1C4=C(CC[C@@]13C)C(=O)OC4)[C@@H]2O [TRIPTOLIDE]	33	49	21	43	56	30	> 10000	21	22	19	mortality at 1.6 µM [19]: 100%; Activity [20]: Toxic; Activity [21]: Toxic; Activity [22]: Toxic; Activity (HepG2 [10]): Active; Activity (HepG2 [23]): Active; Activity [24]: Toxic; Activity [25]: Non-Toxic; Activity [26]: Toxic
